The target of one test is T1, FUT6 (Homo sapiens, UniProt P51993).
T1 sequence (P51993 1-359): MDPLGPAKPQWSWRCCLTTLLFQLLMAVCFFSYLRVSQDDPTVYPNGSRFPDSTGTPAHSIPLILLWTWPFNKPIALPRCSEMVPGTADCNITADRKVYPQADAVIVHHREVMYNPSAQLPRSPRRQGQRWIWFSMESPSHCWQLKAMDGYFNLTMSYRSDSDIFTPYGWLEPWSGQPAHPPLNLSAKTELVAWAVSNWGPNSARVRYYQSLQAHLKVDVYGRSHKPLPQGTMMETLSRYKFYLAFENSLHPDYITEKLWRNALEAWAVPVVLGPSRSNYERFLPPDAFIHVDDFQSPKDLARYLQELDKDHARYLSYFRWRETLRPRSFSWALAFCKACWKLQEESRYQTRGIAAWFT
The test can be described thus: Fluorescent labeling with fluorophore-conjugated fucose by FUT6. The following applies: fluorophore-conjugated fucose donor; acceptor GlcNAc of lactosamine, sialylation on terminal Gal is flexible; FIG. 9. More on the design: key: +++: indicated by number of + signs; ++: indicated by number of + signs; indicated by number of + signs. Type of test: biochemical. The procedure:
FIG. 9A-FIG. 9B show exemplary results of probing substrate glycans of various fucosyltransferases on fetuin and asialofetuin. FIG. 9A. Probing substrate glycans of fucosyltransferases with guanosine 5′-diphosphate activated Cy5 conjugated fucose (GDP-Cy5-Fuc). […] FUT9 labeled itself (indicated by an arrow in the gel). FIG. 9B. Tolerance of Alexa-Fluor®555 (555), Alexa-Fluor®488 (488), and Cy5 by the indicated fucosyltransferases. All reactions were incubated at 37° C. for 30 minutes and then separated on SDS-PAGE and imaged with silver staining (upper panels) and fluorescent imager (lower panels). M, molecular marker.
(§1) For a typical labeling reaction, 1 μg to 5 μg target protein was mixed with 0.2 nmol GDP-f-Fuc and 0.2 μg of a fucosyltransferase in 30 μL buffer of 25 mM Tris pH 7.5, 10 mM MnCl2. The mixture was incubated at 37° C. for 30 minutes. The reaction was then separated by sodium dodecyl sulfate—polyacrylamide gel electrophoresis (SDS-PAGE) and the gel was directly imaged using a fluorescent imager FluorChem M ProteinSimple, Bio-Techne, Minneapolis, MN), followed by imaging with traditional protein imaging methods such as silver staining or trichloroethanol (TCE) staining.
The four enzymes tolerated the three fluorophores to different levels.

The next test has as its target T2, FUT8 (Homo sapiens, UniProt Q9BYC5).
T2 construct: purchased Bio-Techne (Minneapolis, MN)
T2 sequence (Q9BYC5 1-575): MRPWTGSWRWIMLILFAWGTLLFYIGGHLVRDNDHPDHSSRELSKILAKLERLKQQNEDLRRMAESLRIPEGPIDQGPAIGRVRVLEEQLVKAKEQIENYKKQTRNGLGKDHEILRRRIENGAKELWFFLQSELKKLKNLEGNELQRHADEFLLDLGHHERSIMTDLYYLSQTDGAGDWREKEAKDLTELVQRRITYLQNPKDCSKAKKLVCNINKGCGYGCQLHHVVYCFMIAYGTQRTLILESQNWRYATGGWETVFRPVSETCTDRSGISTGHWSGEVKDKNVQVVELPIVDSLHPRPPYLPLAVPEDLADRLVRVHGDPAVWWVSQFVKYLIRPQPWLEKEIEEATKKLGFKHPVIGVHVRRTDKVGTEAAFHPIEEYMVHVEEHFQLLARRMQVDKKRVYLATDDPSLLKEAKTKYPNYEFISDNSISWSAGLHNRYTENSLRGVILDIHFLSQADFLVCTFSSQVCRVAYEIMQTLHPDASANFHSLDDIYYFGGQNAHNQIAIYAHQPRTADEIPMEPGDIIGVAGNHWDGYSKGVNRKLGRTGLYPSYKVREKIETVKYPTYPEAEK
Description: Fluorescent labeling with fluorophore-conjugated fucose by FUT8. Type of test: biochemical. Also on record: key to Tolerance of the fluorophore by FUT8: +++: indicated by number of + signs; ++: indicated by number of + signs; indicated by number of + signs. The following applies: for Incorporation of conjugated fucose into antibodies by FUT8: Cantuzumab (FUT8 knockout cells) and NIST mAb 8671, FIG. 10A; for Tolerance of the fluorophore by FUT8: fluorophore-conjugated fucose donor, acceptor core GlcNAc of N-glycans, labeled Cantuzumab in FIG. 10.
Text: FIG. 10A-FIG. 10D show exemplary results of probing core-6 fucosylation on antibodies by FUT8 incorporation of fluorophores. FIG. 10A. Results of probing substrate glycans of FUT8 (F8) and FUT9 (F9) on Cantuzumab, an anti-Muc1 therapeutic antibody, and NIST reference mAb 8671 using guanosine 5′-diphosphate activated Alexa-Fluor®555 conjugated fucose (GDP-AF555-Fuc) (555), GDP-Cy5-fucose (Cy5), and guanosine 5′-diphosphate activated Alexa-Fluor®488 conjugated fucose (GDP-AF488-Fuc) (488) as donor substrates. Cantuzumab was expressed in FUT8 knockout cells and is devoid of core-6 fucose. Molecular marker (MM) is a prestained Western molecular marker (Bio-Rad Laboratories, Hercules, CA). […] The product of each reaction was separated using SDS-PAGE and imaged with trichloroethanol (TCE) staining (upper panel) and fluorescent imager (lower panel). Labeling on the light chains of the antibodies by Alexa-Fluor®555 is likely the result of non-specific staining due to the use of unpurified GDP-AF555-Fuc that contained free Alexa-Fluor®555. FIG. 10B. […] FIG. 10C. […] FIG. 10D. Schematics of the glycan structures analyzed in FIG. 10B and FIG. 10C.
as §1
Although FUT8 was known to tolerate azido-fucose (Wu et al. Biochem Biophys Res Commun 473, 524-529 (2016)), it was unknown whether FUT8 could tolerate a fluorophore-conjugated fucose. To test whether FUT8 could tolerate the fluorophore-conjugated fucose and detect its substrate glycans, two substrates were used: Cantuzumab was prepared from a FUT8 knockout cell line, and a reference monoclonal antibody from the National Institute of Standards and Technology (NIST mAb, material 8671, Gaithersburg, MD). The NIST mAb is a humanized IgG1κ monoclonal antibody (Kashi et al. MAbs 10, 922-933 (2018)). IgG antibodies are known to contain an N-glycan site on their heavy chains (Reusch et al. Glycobiology 25, 1325-1334 (2015)).

As for “guanosine 5′-diphosphate activated Alexa-Fluor®488 conjugated fucose [GDP-AF488-Fuc]”, on FUT6, the “Tolerance of the fluorophore by FUT6” value is recorded as “++”. On FUT8, the “Incorporation of conjugated fucose into antibodies by FUT8” value is given as “introduced into Cantuzumab but not to NIST mAb” and the “Tolerance of the fluorophore by FUT8” value is “++”.

Turning to “guanosine 5′-diphosphate activated Alexa-Fluor®555 conjugated fucose [GDP-AF555-Fuc]”, the “Tolerance of the fluorophore by FUT6” value on FUT6 is listed as “++”. In addition, on FUT8, the “Incorporation of conjugated fucose into antibodies by FUT8” value is “introduced into Cantuzumab but not to NIST mAb” and the “Tolerance of the fluorophore by FUT8” value was “++”.

The values above are taken from patent US20240168030A1, “DIRECT FLUORESCENT GLYCAN LABELING” (BIO-TECHNE CORPORATION, priority 2019, published 2024).
